Test results published in patent US20250281480A1, “PHARMACEUTICAL DRY POWDER INHALATION FORMULATION” (Bayer Aktiengesellschaft, priority 2021, published 2025).

System: cGMP
Assay: Phase I, healthy male subjects, inhaled once daily for 14 days: cGMP
Assay type: in vivo, human
Conditions: for cGMP changes from baseline: 1000 μg inhaled once daily for 14 days, n = 17; for cGMP concntration over time (mean +/− standard deviation): 1000 μg inhaled once daily, 14 days
Experimental: Healthy white male subjects, aged 18 to 45 years and with a body mass index (BMI) above/equal 18.5 and below/equal 29.9 kg/m2 were treated in a clinical pharmacological phase I study for 14 days with inhaled once daily doses of 1000 μg (nominal dose) or Placebo of dry powder of example 4. […] Drug activity/target engagement in healthy men was controlled in the healthy subjects by analysing blood samples for cGMP.

For `O=C(O)c1ccc(CCN(CCc2ccccc2OCc2ccc(-c3ccc(C(F)(F)F)cc3)cc2Cl)[C@H]2CCCc3nc(C(=O)O)ccc32)cc1` [Example 4, (5S)—{[2-(4-Carboxyphenyl)ethyl][2-(2-{[3-chloro-4′-(trifluoromethyl)biphenyl-4-yl]methoxy}phenyl)-ethyl]amino}-5,6,7,8-tetrahydroquinoline-2-carboxylic Acid as Monohydrate I], the cGMP changes from baseline (0 D 02 H 00 M) was 4840 pmol/L, the cGMP changes from baseline (0 D 04 H 00 M) was 7290 pmol/L and the cGMP changes from baseline (0 D 06 H 00 M) was 9950 pmol/L. The cGMP changes from baseline (0 D 08 H 00 M) was 10600 pmol/L, the cGMP changes from baseline (0 D 12 H 00 M) was 7530 pmol/L and the cGMP changes from baseline (0 D 15 H 00 M) was 6740 pmol/L. It also gave a cGMP changes from baseline (1 D 00 H 00 M) of 2980 pmol/L, a cGMP changes from baseline (2 D 00 H 00 M) of 4550 pmol/L and a cGMP changes from baseline (2 D 03 H 00 M) of 13000 pmol/L. It also gave a cGMP changes from baseline (2 D 08 H 00 M) of 16400 pmol/L, a cGMP changes from baseline (2 D 12 H 00 M) of 12600 pmol/L and a cGMP changes from baseline (3 D 00 H 00 M (trough prior inhalation)) of 5160 pmol/L. The cGMP changes from baseline (4 D 00 H 00 M (trough prior inhalation)) was 6360 pmol/L, the cGMP changes from baseline (5 D 00 H 00 M (trough prior inhalation)) was 5920 pmol/L and the cGMP changes from baseline (6 D 00 H 00 M) was 5090 pmol/L. For the same molecule, the cGMP changes from baseline (6 D 03 H 00 M) was 13400 pmol/L, the cGMP changes from baseline (6 D 08 H 00 M) was 20100 pmol/L and the cGMP changes from baseline (6 D 12 H 00 M) was 13900 pmol/L. For the same molecule, the cGMP changes from baseline (7 D 00 H 00 M (trough prior inhalation)) was 6180 pmol/L, the cGMP changes from baseline (8 D 00 H 00 M (trough prior inhalation)) was 6200 pmol/L and the cGMP changes from baseline (9 D 00 H 00 M (trough prior inhalation)) was 6580 pmol/L. The cGMP changes from baseline (10 D 00 H 00 M) was 6450 pmol/L, the cGMP changes from baseline (10 D 03 H 00 M) was 12700 pmol/L and the cGMP changes from baseline (10 D 08 H 00 M) was 17500 pmol/L. For the same molecule, the cGMP changes from baseline (10 D 12 H 00 M) was 13000 pmol/L, the cGMP changes from baseline (11 D 00 H 00 M (trough prior inhalation)) was 6940 pmol/L and the cGMP changes from baseline (12 D 00 H 00 M (trough prior inhalation)) was 8060 pmol/L. For the same molecule, the cGMP changes from baseline (12 D 22 H 00 M) was 6950 pmol/L, the cGMP changes from baseline (13 D 02 H 00 M (after last inhalation)) was 9120 pmol/L and the cGMP changes from baseline (13 D 04 H 00 M (after last inhalation)) was 12900 pmol/L. The cGMP changes from baseline (13 D 06 H 00 M (after last inhalation)) was 17000 pmol/L, the cGMP changes from baseline (13 D 08 H 00 M (after last inhalation)) was 17700 pmol/L and the cGMP changes from baseline (13 D 12 H 00 M (after last inhalation)) was 12900 pmol/L. It also gave a cGMP changes from baseline (13 D 15 H 00 M (after last inhalation)) of 12100 pmol/L, a cGMP changes from baseline (14 D 00 H 00 M (after last inhalation)) of 5410 pmol/L and a cGMP changes from baseline (15 D 00 H 00 M (after last inhalation)) of 2520 pmol/L. For the same molecule, the cGMP changes from baseline (15 D 12 H 00 M (after last inhalation)) was 3040 pmol/L, the cGMP changes from baseline (16 D 00 H 00 M (after last inhalation)) was 2000 pmol/L and the cGMP changes from baseline (16 D 12 H 00 M (after last inhalation)) was 2410 pmol/L. The cGMP changes from baseline (17 D 00 H 00 M (after last inhalation)) was 400 pmol/L, the cGMP changes from baseline (20 D 00 H 00 M (after last inhalation)) was 1220 pmol/L and the cGMP changes from baseline (FOLLOW-UP) was 1520 pmol/L. It also gave a cGMP changes from baseline (−0 D 09 H 00 M (pretreatment day)) of 224 pmol/L, a cGMP changes from baseline (−0 D 12 H 00 M (pretreatment day)) of 306 pmol/L and a cGMP changes from baseline (−0 D 16 H 00 M (pretreatment day)) of 676 pmol/L. For the same molecule, the “cGMP changes from baseline” value (−0 D 18 H 00 M (pretreatment day)) was −252.9 +/− 1345.9, the “cGMP changes from baseline” value (−0 D 20 H 00 M (pretreatment day)) was −952.9 +/− 1984.7 and the “cGMP changes from baseline” value (−0 D 22 H 00 M (pretreatment day)) was −100.0 +/− 1403.1. It also gave a cGMP concntration over time (mean +/− standard deviation) (0 D 02 H 00 M) of 9170 pmol/L, a cGMP concntration over time (mean +/− standard deviation) (0 D 04 H 00 M) of 11600 pmol/L and a cGMP concntration over time (mean +/− standard deviation) (0 D 06 H 00 M) of 14300 pmol/L. The cGMP concntration over time (mean +/− standard deviation) (0 D 08 H 00 M) was 14900 pmol/L, the cGMP concntration over time (mean +/− standard deviation) (0 D 12 H 00 M) was 11800 pmol/L and the cGMP concntration over time (mean +/− standard deviation) (0 D 15 H 00 M) was 11100 pmol/L. The cGMP concntration over time (mean +/− standard deviation) (1 D 00 H 00 M) was 7310 pmol/L, the cGMP concntration over time (mean +/− standard deviation) (2 D 00 H 00 M) was 8880 pmol/L and the cGMP concntration over time (mean +/− standard deviation) (2 D 03 H 00 M) was 17300 pmol/L. For the same molecule, the cGMP concntration over time (mean +/− standard deviation) (2 D 08 H 00 M) was 20800 pmol/L, the cGMP concntration over time (mean +/− standard deviation) (2 D 12 H 00 M) was 16900 pmol/L and the cGMP concntration over time (mean +/− standard deviation) (3 D 00 H 00 M) was 9490 pmol/L. The cGMP concntration over time (mean +/− standard deviation) (4 D 00 H 00 M) was 10700 pmol/L, the cGMP concntration over time (mean +/− standard deviation) (5 D 00 H 00 M) was 10300 pmol/L and the cGMP concntration over time (mean +/− standard deviation) (6 D 00 H 00 M) was 9420 pmol/L. For the same molecule, the cGMP concntration over time (mean +/− standard deviation) (6 D 03 H 00 M) was 17700 pmol/L, the cGMP concntration over time (mean +/− standard deviation) (6 D 08 H 00 M) was 24500 pmol/L and the cGMP concntration over time (mean +/− standard deviation) (6 D 12 H 00 M) was 18200 pmol/L. For the same molecule, the cGMP concntration over time (mean +/− standard deviation) (7 D 00 H 00 M) was 10500 pmol/L, the cGMP concntration over time (mean +/− standard deviation) (8 D 00 H 00 M) was 10500 pmol/L and the cGMP concntration over time (mean +/− standard deviation) (9 D 00 H 00 M) was 10900 pmol/L. It also gave a cGMP concntration over time (mean +/− standard deviation) (10 D 00 H 00 M) of 10800 pmol/L, a cGMP concntration over time (mean +/− standard deviation) (10 D 03 H 00 M) of 17100 pmol/L and a cGMP concntration over time (mean +/− standard deviation) (10 D 08 H 00 M) of 21900 pmol/L. For the same molecule, the cGMP concntration over time (mean +/− standard deviation) (10 D 12 H 00 M) was 17300 pmol/L, the cGMP concntration over time (mean +/− standard deviation) (11 D 00 H 00 M) was 11300 pmol/L and the cGMP concntration over time (mean +/− standard deviation) (12 D 00 H 00 M) was 12400 pmol/L. For the same molecule, the cGMP concntration over time (mean +/− standard deviation) (12 D 22 H 00 M) was 11300 pmol/L, the cGMP concntration over time (mean +/− standard deviation) (13 D 02 H 00 M) was 13400 pmol/L and the cGMP concntration over time (mean +/− standard deviation) (13 D 04 H 00 M) was 17300 pmol/L. The cGMP concntration over time (mean +/− standard deviation) (13 D 06 H 00 M) was 21400 pmol/L, the cGMP concntration over time (mean +/− standard deviation) (13 D 08 H 00 M) was 22000 pmol/L and the cGMP concntration over time (mean +/− standard deviation) (13 D 12 H 00 M) was 17200 pmol/L. It also gave a cGMP concntration over time (mean +/− standard deviation) (13 D 15 H 00 M) of 16400 pmol/L, a cGMP concntration over time (mean +/− standard deviation) (14 D 00 H 00 M) of 9740 pmol/L and a cGMP concntration over time (mean +/− standard deviation) (15 D 00 H 00 M) of 6850 pmol/L. The cGMP concntration over time (mean +/− standard deviation) (15 D 12 H 00 M) was 7370 pmol/L, the cGMP concntration over time (mean +/− standard deviation) (16 D 00 H 00 M) was 6330 pmol/L and the cGMP concntration over time (mean +/− standard deviation) (16 D 12 H 00 M) was 6740 pmol/L. It also gave a cGMP concntration over time (mean +/− standard deviation) (17 D 00 H 00 M) of 4730 pmol/L, a cGMP concntration over time (mean +/− standard deviation) (20 D 00 H 00 M) of 5520 pmol/L and a cGMP concntration over time (mean +/− standard deviation) (FOLLOW-UP) of 5850 pmol/L. The cGMP concntration over time (mean +/− standard deviation) (−0 D 02 H 00 M) was 4330 pmol/L, the cGMP concntration over time (mean +/− standard deviation) (−0 D 09 H 00 M) was 5490 pmol/L and the cGMP concntration over time (mean +/− standard deviation) (−0 D 12 H 00 M) was 5570 pmol/L. For the same molecule, the cGMP concntration over time (mean +/− standard deviation) (−0 D 16 H 00 M) was 5940 pmol/L, the cGMP concntration over time (mean +/− standard deviation) (−0 D 18 H 00 M) was 5010 pmol/L and the cGMP concntration over time (mean +/− standard deviation) (−0 D 20 H 00 M) was 4310 pmol/L. For the same molecule, the cGMP concntration over time (mean +/− standard deviation) (−0 D 22 H 00 M) was 5160 pmol/L, the cGMP concntration over time (mean +/− standard deviation) (−1 D 02 H 00 M) was 5260 pmol/L and the “steady state of cGMP concentration reached after” value (1000 μg once daily inhalation) was ≤ 11 days.
